Test results: ChEMBL document CHEMBL4715696, “In vitro synergistic anticancer activity of the combination of T-type calcium channel blocker and chemotherapeutic agent in A549 cells” (Bioorg Med Chem Lett, 2016)

Tests used:
A549 [1] = experiment: Potentiation of etoposide-induced cell cycle arrest in human A549 cells assessed as accumulation at S phase at 5 uM in presence of etoposide after 48 hrs by flow cytometric analysis (Rvb =12.3%); type: functional
[2] = Protein binding in human plasma at 10 uM after 4 hrs; type: ADME, cell-free; settings: read-out: PPB (converted)
A549 [3] = experiment: Potentiation of cisplatin-induced cell cycle arrest in human A549 cells assessed as accumulation at G2/M phase at 5 uM in presence of cisplatin after 48 hrs by flow cytometric analysis (Rvb =52.9%); type: functional
[4] = Upregulation of p27KIP1 protein expression in human A549 cells assessed as fold change in expression at 10 uM after 24 hrs by Western blot analysis (reference value: 0.83); type: functional
A549 [5] = experiment: Decrease in cell cycle associated protein expression in human A549 cells assessed as reduction in cyclin E expression at 10 uM by Western blot analysis; type: functional, cell-based; settings: time 6-48 hrs, TDE = time-dependent effect
A549 [6] = experiment: Potentiation of etoposide-induced cell cycle arrest in human A549 cells assessed as accumulation at G1 phase at 2.5 uM in presence of etoposide after 48 hrs by flow cytometric analysis (reference value: 36%); type: functional
[7] = Upregulation of p27KIP1 protein expression in human A549 cells assessed as fold change in expression at 2.5 uM after 48 hrs by Western blot analysis (reference value: 0.48); type: functional
A549 [8] = experiment: Induction of cell cycle arrest in human A549 cells assessed as accumulation at sub G1 phase at 2.5 uM after 48 hrs by flow cytometric analysis (Rvb =1.9 %); type: functional
[9] = Metabolic stability in human plasma assessed as parent compound remaining at 10 uM measured after 1 hr; type: ADME, cell-free; settings: read-out: Stabilty
A549 [10] = experiment: Decrease in cell cycle associated protein expression in human A549 cells assessed as fold change in cyclin D3 expression at 10 uM after 12 hrs by Western blot analysis (reference value: 1.09); type: functional
A549 [11] = experiment: Decrease in cell cycle associated protein expression in human A549 cells assessed as fold change in CDK6 expression at 10 uM after 6 hrs by Western blot analysis (reference value: 0.7); type: functional
A549 [12] = experiment: Decrease in cell cycle associated protein expression in human A549 cells assessed as fold change in CDK6 expression at 10 uM after 36 hrs by Western blot analysis (reference value: 0.7); type: functional
[13] = Upregulation of p27KIP1 protein expression in human A549 cells assessed as fold change in expression at 10 uM after 36 hrs by Western blot analysis (reference value: 0.83); type: functional
A549 [14] = experiment: Decrease in cell cycle associated protein expression in human A549 cells assessed as fold change in CDK2 expression at 10 uM after 48 hrs by Western blot analysis (reference value: 0.48 to 0.79); type: functional
A549 [15] = experiment: Induction of cell cycle arrest in human A549 cells assessed as accumulation at S phase at 2.5 uM after 48 hrs by flow cytometric analysis (Rvb =10.4%); type: functional
A549 [16] = experiment: Induction of cell cycle arrest in human A549 cells assessed as accumulation at sub G1 phase at 5 uM after 48 hrs by flow cytometric analysis (reference value: 1.9 to 4.9%); type: functional
A549 [17] = experiment: Decrease in cell cycle associated protein expression in human A549 cells assessed as fold change in cyclin E expression at 10 uM after 36 hrs by Western blot analysis (reference value: 0.55); type: functional
A549 [18] = experiment: Induction of cell cycle arrest in human A549 cells assessed as decrease in cell accumulation at S phase after 48 hrs by flow cytometric analysis; type: functional, cell-based; settings: dose 2.5-10 µM
A549 [19] = experiment: Induction of cell cycle arrest in human A549 cells assessed as accumulation at G2/M phase at 5 uM after 48 hrs by flow cytometric analysis (reference value: 22.1 to 25.4 %); type: functional
A549 [20] = experiment: Decrease in cell cycle associated protein expression in human A549 cells assessed as reduction in cyclin D3 expression after 48 hrs by Western blot analysis; type: functional, cell-based; settings: dose 2.5-10 µM
[21] = Metabolic stability in rat plasma assessed as parent compound remaining at 10 uM measured after 2 hrs; type: ADME, cell-free; settings: read-out: Stabilty
A549 [22] = experiment: Potentiation of etoposide-induced cell cycle arrest in human A549 cells assessed as accumulation at G2/M phase at 5 uM in presence of etoposide after 48 hrs by flow cytometric analysis (Rvb =18.9%); type: functional
A549 [23] = experiment: Decrease in cell cycle associated protein expression in human A549 cells assessed as fold change in CDK4 expression at 10 uM after 24 hrs by Western blot analysis (reference value: 0.87); type: functional
A549 [24] = experiment: Decrease in cell cycle associated protein expression in human A549 cells assessed as fold change in cyclin E expression at 10 uM after 12 hrs by Western blot analysis (reference value: 0.55); type: functional
A549 [25] = experiment: Potentiation of etoposide-induced cell cycle arrest in human A549 cells assessed as accumulation at G1 phase at 5 uM in presence of etoposide after 48 hrs by flow cytometric analysis (reference value: 36%); type: functional
A549 [26] = experiment: Decrease in cell cycle associated protein expression in human A549 cells assessed as fold change in CDK2 expression at 5 uM after 48 hrs by Western blot analysis (reference value: 0.48); type: functional
A549 [27] = experiment: Potentiation of cisplatin-induced cell cycle arrest in human A549 cells assessed as accumulation at sub G1 phase at 2.5 uM in presence of cisplatin after 48 hrs by flow cytometric analysis (reference value: 17%); type: functional
A549 [28] = experiment: Induction of cell cycle arrest in human A549 cells assessed as accumulation at sub G1 phase at 10 uM after 48 hrs by flow cytometric analysis (reference value: 1.9%); type: functional
A549 [29] = experiment: Decrease in cell cycle associated protein expression in human A549 cells assessed as fold change in CDK4 expression at 10 uM after 6 hrs by Western blot analysis (reference value: 0.87); type: functional
A549 [30] = experiment: Decrease in cell cycle associated protein expression in human A549 cells assessed as fold change in CDK6 expression at 10 uM after 24 hrs by Western blot analysis (reference value: 0.7); type: functional
A549 [31] = experiment: Induction of cell cycle arrest in human A549 cells assessed as accumulation at G2/M phase at 10 uM after 48 hrs by flow cytometric analysis (reference value: 22.1%); type: functional
[32] = Upregulation of p27KIP1 protein expression in human A549 cells assessed as fold change in expression at 10 uM after 12 hrs by Western blot analysis (reference value: 0.83); type: functional
A549 [33] = experiment: Potentiation of cisplatin-induced cell cycle arrest in human A549 cells assessed as accumulation at G1 phase at 5 uM in presence of cisplatin after 48 hrs by flow cytometric analysis (reference value: 14.4%); type: functional
[34] = Permeability of the compound by PAMPA assay; type: ADME; settings: read-out: permeability
A549 [35] = experiment: Decrease in cell cycle associated protein expression in human A549 cells assessed as reduction in cyclin E expression after 48 hrs by Western blot analysis; type: functional, cell-based; settings: dose 2.5-10 µM
A549 [36] = experiment: Potentiation of etoposide-induced cell cycle arrest in human A549 cells assessed as accumulation at sub G1 phase at 2.5 uM in presence of etoposide after 48 hrs by flow cytometric analysis (Rvb =33 %); type: functional

What does the source list for CN(C)C(=O)NCCCN(C)C1=Nc2ccccc2C(CC(=O)NCc2ccc(F)cc2)N1c1ccc(C2CCCCC2)cc1 (stereo unspecified)?
Activity (A549 [1]): 7.9%; fraction unbound at 4 h, 10 µM [2]: < 0.01; Activity (A549 [3]): 33.9%; fold change (FC) [4]: 1.05; Activity (A549 [5]): Tde; Activity (A549 [6]): 34.3%; fold change (FC) [7]: 0.62; Activity (A549 [8]): 1.3%; remaining at 1 h, 10 µM [9]: 85.1%; fold change (FC) (A549 [10]): 0.42; fold change (FC) (A549 [11]): 0.7; fold change (FC) (A549 [12]): 0.38; fold change (FC) [13]: 1.52; fold change (FC) (A549 [14]): 0.26; Activity (A549 [15]): 8.8%; Activity (A549 [16]): 1%; fold change (FC) (A549 [17]): 0.18; Activity (A549 [18]): Dose-dependent effect; Activity (A549 [19]): 14.3%; Activity (A549 [20]): Dose-dependent effect; remaining at 2 h, 10 µM [21]: 24.8%; Activity (A549 [22]): 13.4%; fold change (FC) (A549 [23]): 0.59; fold change (FC) (A549 [24]): 0.13; Activity (A549 [25]): 35.6%; fold change (FC) (A549 [26]): 0.46; Activity (A549 [27]): 18.6%; Activity (A549 [28]): 4%; fold change (FC) (A549 [29]): 0.88; fold change (FC) (A549 [30]): 0.47; Activity (A549 [31]): 10.9%; fold change (FC) [32]: 0.65; Activity (A549 [33]): 24.5%; Papp [34]: < 1.5 ×10⁻⁶ cm/s; Activity (A549 [35]): Dose-dependent effect; Activity (A549 [36]): 36.9%
